US20200306283A1, “CANCER TREATMENT AND METASTASIS INHIBITION USING AN ANTI-CANCER STEM CELL AGENT IN COMBINATION WITH A NEU1 SIALIDASE INHIBITOR OR A CYTOKINE INHIBITOR AFTER PRIMARY CANCER TREATMENT” (priority 2016, published 2020)

Assays:
[1] = tested on: enriched circulating tumour cells from a patient with colorectal cancer; assay: Cultured enriched CTCs from a colorectal cancer patient treated with IL-6, IL-8 or PDGFBB (EpCAM, CD133, Lgr5 flow cytometry); assay type: cell-based, human
Source text: A blood sample was collected from a patient with colorectal cancer six days after surgery. Blood samples were enriched for CTCs using RosetteSep CD 56 kit according to standard protocol. Prior to cell culture, cells were stained with the following antibody cocktail: EpCAM A488, CD133PE, CD 45 PerCP Cy5.5, and Lgr5-PE-Vio770. Cells were either cultured in low attachment well plates without cytokines (control cells) or with three different cytokines (IL-6, IL-8 or PDGFBB).
Flow cytometry data was analysed using IDEAS software. Double events, out of focus events, CD45PercPCy5.5 positive cells, dead cells and non-nucleated events were eliminated from the fluorescence analysis of the cell population. Hoescht 33258 dye was used to stain nuclei of enriched CTCs. All experiments were stained with a fixable live/dead dye eFluor 506 to exclude dead cells.

SW-620 cells = SW-620 cells treated with cytokines with or without Irinotecan, flow cytometry for stem cell markers and apoptosis; assay type: cell-based, human; conditions: SW-620, cytokines 24 hours then 2 μM Irinotecan 36 hours; zero in non-treated control cells
Experimental: SW-620 cells, a human colorectal adenocarcinoma cell line, were treated with cytokines alone or in combination including IL-6, TGF-beta, HGF, PGE-2, IL-6+PGE-2 and TGF-beta+HGF for 24 hours and compared to untreated SW-620 cells as control. Some treated and untreated SW-620 cells were then exposed to 2 μM Irinotecan for 36 hours at which point cells were harvested for flow cytometry to assess for stem cell markers and markers of apoptosis. The percentage of CD44+CD133− cells following treatment with various cytokine and cytokine cocktails is depicted in FIG. 10. Compared to non-cytokine treated cells, combinations with IL-6+PGE-2, and TGF-beta+HGF increased the number and percentage of cells that were CD44+CD133− as shown in FIG. 10 (stem cells). FIG. 11 depicts the percentage of CD44+CD133− cells following treatment with various cytokines and Irinotecan. […]
Additionally, the percentage of CD44-CD133+ cells following treatment with various cytokines and cytokines cocktails was determined as depicted in FIG. 16. The percentage of CD44-CD133+ cells following treatment with various cytokines and Irinotecan was measured as depicted in FIG. 17. The percentage of CD44-CD133+ cells following treatment with various cytokine cocktails and Irinotecan was measured as depicted in FIG. 18. […]

[2] = tested on: enriched circulating tumour cells from a patient with metastatic prostate cancer; assay: Cell proliferation / cancer stem cell markers (EpCAM, CD44, CD133) in enriched CTCs cultured with cytokine cocktails; assay type: cell-based, human
Experimental: (§1) Cells were fixed in 1% Paraformaldehyde for 15 minutes at room temperature and run on Flowsight using 2 lasers (488 nm at 60 mW and 405 nm at 30 mW). For cell lines, 100,000 events were collected whilst for enriched CTCs all events were collected until the sample finished.
(§2) Flow cytometry data was analysed using IDEAS software. Double events, out of focus events, CD45PercPCy5.5 positive cells (in case of enriched CTCs), dead cells and non-nucleated events were eliminated from the fluorescence analysis of the cell population. FIG. 2 depicts scatterplots of flow cytometry experiments showing the enriched CTCs stained with an antibody containing CD44 after treatment with various cytokines and cytokine cocktails.
In order to determine if selected cytokines influence cell proliferation of circulating tumour cells (CTCs), whole blood was collected from a patient with metastatic prostate cancer. Circulating tumour cells were enriched from whole blood using RosetteSep CTC Enrichment cocktail. Briefly, samples of whole blood were incubated with RosetteSep (anti CD 56 for 20 minutes at room temperature). Phosphate buffered saline containing 2% Fetal Bovine Serum was added to the samples and layered on a Ficoll Paque gradient. After centrifugation, the supernatant which contained CTCs was washed twice with PBS containing 2% FBS. Equal volumes of the cell suspension were seeded into a 24-well ultra-low attachment polystyrene plate. […] FIG. 3 depicts scatterplots of flow cytometry experiments enriched CTCs stained with an antibody containing CD133 after treatment with various cytokines and cytokine cocktails.
FIG. 6 depicts cell proliferation of subpopulations in cultured CTCs after exposure to various cytokines and cytokine cocktails. Cells were stained using an antibody containing CD44 PE.
Cells were stained using an antibody containing CD133 PE.

HCT-15 cells = assay: Cell subpopulations (CD44/CD24) in HCT-15 cell line after cytokine exposure, imaging flow cytometry; assay type: cell-based; parameters: unit not given here; conditions: HCT-15 cells after exposure to cytokines singly or in pairs
Experimental: Two authenticated colorectal carcinoma cell lines, HCT-15 and SW-620, were used to test the effect of different cytokine and cytokine cocktails, including IL-6, HGF, PGE-2, TGF-beta and MMP-9 alone or in a cocktail, on cell proliferation, EMT and cancer stem cell populations.
In order to evaluate stem cell populations, cells were synchronized by serum starvation for 72 hours before seeding in 24-well ultra low attachment plates at a density of 200,000 cells/well. Cells were then detached using trypsin EDTA and washed twice with PBS (without Calcium or Magnesium). A cell proliferation dye, eFluor 450 was used to label cells. Cells were grown with DMEM with high glucose and 2 mM Gluatmine without FBS in the presence of selected cytokines and or cytokine cocktails over a period of 72 hrs.
Cells that were grown in 5% serum were stained with the following antibody cocktails: CD24FITC, CD44PE and CD24FITC, CD133PE. Cells were also stained with a fixable live/dead efluor dye 506 to exclude dead cells. In parallel, cells were grown in the presence of 5% serum to evaluate CSC markers.
as §1
as §2, with “cocktails. Hoescht 33258 dye was used to stain nuclei in the case of the HCT-15 cell line and enriched CTCs. All experiments were stained with a fixable live/dead dye eFluor 506 to exclude dead cells.” for “cocktails.”
To evaluate which cocktail combinations were most likely involved in cell proliferation of presumed quiescent stem cells or de-differentiated stem cell-like cells, four cytokines, IL-6, HGF, PGE-2 and TGF-beta were added singly or in pairs to HCT-15 cells. Results of combinations that influenced cell proliferation of HCT-15 cells in culture are presented. […] FIG. 4 depicts cell proliferation of subpopulations in the HCT-15 cell line after exposure to various cytokines and cytokine cocktails.

[3] = tested on: xenograft tumors of PANC-1 cells; assay: Fluorescence immunohistochemistry of E-cadherin and N-cadherin in PANC-1 xenograft tumors (FIG. 24); assay type: in vivo; conditions: immunocompromised mice
Experimental: Paraffin-embedded tumor sections (5 μm) on glass slides were processed from immunohistochemistry using conjugated E-cadherin and N-cadherin antibodies (see A of FIG. 24). Background control (CTL) sections were prepared without the antibodies. Images are representative of at least five fields of view from two tumor sections. (B). Each bar represents the mean (±standard error of the mean) corrected density of tumor staining. Abbrev.: C=cohort; M=mouse number. E- and N-cadherin expression in paraffin-embedded xenograft tumors of PANC-1 cells in immunocompromised mice using conjugated E- and N-cadherin antibodies was detected by fluorescence immunohistochemistry. […] Images are representative of at least five fields of view from two tumor sections, and each bar represents the mean±standard error of the mean corrected density of tumor staining.

[4] = cultured CTCs from colorectal cancer patient
[5] = cell culture period 8 days, CD44PE antibody cocktail

Compound: IL6: cytokine Interleukin 6 added to cancer cells in culture
- EpCAM + CD133+ cell subpopulation [1, 4]: 0.1 percentages of gated subpopulations
- EpCAM + CD133− cell subpopulation [1, 4]: 2.98 percentages of gated subpopulations
- EpCAM − CD133+ cell subpopulation [1, 4]: 0.12 percentages of gated subpopulations
- EpCAM − CD133− cell subpopulation [1, 4]: 90.5 percentages of gated subpopulations
- EpCAM+CD133− subpopulation (cancer stem cell fraction) ([1]; cultured CTCs, colorectal cancer patient, 0.05% before culture, 2% control, listed as IL-6): significantly increased
- percentage of CD44+CD133− stem cells (SW-620 cells): enriched
- percentage of cells positive for both EpCAM and CD44 ([2]; 8 days culture, CD44PE antibody cocktail): highest
- EpCAM-CD44+ cell sub-population ([2]; 8 days culture, no serum, CD44PE antibody cocktail): 6.14 % gated
- EpCAM + CD133+ cell subpopulation ([2]; CD133 PE antibody cocktail): 23.5 percentages of gated subpopulations
- EpCAM + CD133− cell subpopulation ([2]; CD133 PE antibody cocktail): 0 percentages of gated subpopulations
- EpCAM − CD133+ cell subpopulation ([2]; CD133 PE antibody cocktail): 74.7 percentages of gated subpopulations
- EpCAM − CD133− cell subpopulation ([2]; CD133 PE antibody cocktail): 1.46 percentages of gated subpopulations
- EpCAM + CD44+ cell subpopulation [2, 5]: 35.6 percentage of gated cells
- EpCAM + CD44− cell subpopulation [2, 5]: 2.66 percentage of gated cells
- EpCAM − CD44+ cell subpopulation [2, 5]: 6.14 percentage of gated cells
- EpCAM − CD44− cell subpopulation [2, 5]: 55 percentage of gated cells
- CD24 + CD44− cell subpopulation (HCT-15 cells): 49.1
- CD44 + CD24+ cell subpopulation (HCT-15 cells): 5.63
- CD44 + CD24− cell subpopulation (HCT-15 cells): 1.35
- CD44 − CD24− cell subpopulation (HCT-15 cells): 43.2

Compound: Nc1ccn([C@@H]2O[C@H](CO)[C@@H](O)C2(F)F)c(=O)n1 [Gem, gemcitabine]
- N-cadherin expression in tumor tissue [3]: remained consistent
